Experimental data: patent publication US20260355180A1, “COMPOSITIONS AND METHODS FOR SPLICEOSOME-TARGETED THERAPIES” (Institute for Cancer Research d/b/a The Research Institute …, priority 2022, published 2026)
“Also recorded” adds a separate entry of the source.

Legend:
H82 SCLC cells = assay: RIPK1 depletion rescue of PlaB cytotoxicity, H82; assay type: cell-based; conditions: 18 hours of PlaB, RIPK1 depleted H82
Method: FIG. 2A) SCLC cell lines (H446 and H82) and immortalized fibroblasts (FC1010 and HS68) cell survival curves after 72 hours of PlaB treatment. FIG. 2B) RIPK1 depletion rescues H82 and H446 cell survival after 18 hours of PlaB treatment. FIG. 2C) Western blot showing RIPK1 protein depletion. Mean±SEM, Welch's t test *p<0.05, **p<0.01.
Cancer deregulates splicing^31,32, and we hypothesized that hyper-proliferative SCLCs are dependent on splicing machineries for increased tumorigenicity^90.

H446 cells [1] = assay: Immunofluorescence of A-RNA (J2) and Z-NA (Z22), H446; assay type: cell-based, human
Source text: FIG. 4A-4C: SF3B1 perturbation increases dsRNA and Z-nucleic acid levels in treated cells. […] (FIG. 4B) Quantification of A-RNA and Z-Nucleic acids. (FIG. 4C) Western blot showing induction of cleaved-PARP, pH2AX, and ZBP1, and the reduction of RIPK1 protein levels. Plots of signal intensity are mean±SEM, two-tailed unpaired Student's t test **p<0.01, ****p<0.0001.
Our observations led us to explore what caused the elevated IFN response. We used an immunofluorescence (IF) technique to determine if A-RNA was increased after PlaB treatment.

MEF Flag-ZBP1 cells [2] = assay: A-RNA and Z-NA accumulation in MEF Flag-ZBP1; assay type: cell-based, mouse; conditions: SF3B1 inhibition
MEF Flag-ZBP1 cells [3] = assay: pMLKL western blot / necroptosis, MEF Flag-ZBP1; assay type: cell-based, mouse; conditions: 2.5 nM PlaB, 18 hours, MEF Flag-ZBP1 (full-length ZBP1)
Method: FIG. 5A-5E: SF3B1 perturbation upregulates A-RNA and Z-nucleic acids in MEFs. (FIG. 5A) 5 nM of PlaB induces A-RNA and Z-Nucleic acids in ΔZBP1 MEF cells. (FIG. 5B) Quantification of A-RNA and Z-Nucleic acids. […] Plots of signal intensity are mean±SEM, two-tailed unpaired Student's t test *p<0.05, ***p<0.001, ****p<0.0001. 18 hours of PlaB treatment for IF, WB and rescue experiments. IF: 5 nM PlaB, WB and rescue experiments: 2.5 nM PlaB.
Since induction of Z-nAs can result in ZBP1-dependent necroptosis, we analyzed induction of necroptosis in necroptotic competent MEFs using spliceosome inhibition. […] We also determined that MEFs ΔZBP1, WT, and Flag-ZBP1 cells treated with PlaB began dying within 24hours after treatment. With MEF Flag-ZBP1 cells showing only 20% survival after 24 hours (FIG. 16).

H446 cells [4] = assay: MAVS knock out rescue of PlaB-mediated cell death, H446; assay type: cell-based, human; conditions: MAVS KO H446; data not shown
Source text: Currently, ZBP1 and ADAR1 are the only two known proteins harbor Zα and interact with Z-NAs^104-109.

Compound: CCC(O)C(C)C1OC1CC(C)C=CC=C(C)C1OC(=O)CC(O)CCC(C)(O)C(OC(C)=O)C=CC1C (centres unmarked) [PlaB, Pladienolide B]
- cell survival upon RIPK1 depletion (H82 SCLC cells): rescues
- A-RNA level (H446 cells [1]; 6 hours, mouse J2 antibody, H446): robust induction
- Z-NA level (H446 cells [1]; 6 hours, rabbit Z22 antibody, H446): significant increase
- accumulation of A-RNA (H446 cells [1]; low dose, J2 antibody): induces accumulation
- accumulation of Z-Nucleic acids (H446 cells [1]; low dose, Z22 antibody): induces accumulation
- A-RNA and Z-NA accumulation (MEF Flag-ZBP1 cells [2]): accumulation
- pMLKL (necroptosis) (MEF Flag-ZBP1 cells [3]): triggered pMLKL; also recorded: induction of pMLKL
- rescue of PlaB-mediated cell death by MAVS knock out (H446 cells [4]): only minimally rescue
